{
  "source": "patent US20010001064A1",
  "about": "“Flow electroporation chamber and methods of use thereof” (priority 1998, published 2001)",
  "origin": "cited, not measured here",
  "key": {"hemoglobin [1]": {"target": "T1, hemoglobin (Homo sapiens, UniProt P68871+P69905)", "T1 sequence (P69905 2-142 limits assumed)": "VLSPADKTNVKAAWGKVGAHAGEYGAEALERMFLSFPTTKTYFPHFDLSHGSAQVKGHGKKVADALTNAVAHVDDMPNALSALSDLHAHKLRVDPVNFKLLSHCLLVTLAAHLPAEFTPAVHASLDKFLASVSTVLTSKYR", "T1 sequence (P68871 2-147 limits assumed)": "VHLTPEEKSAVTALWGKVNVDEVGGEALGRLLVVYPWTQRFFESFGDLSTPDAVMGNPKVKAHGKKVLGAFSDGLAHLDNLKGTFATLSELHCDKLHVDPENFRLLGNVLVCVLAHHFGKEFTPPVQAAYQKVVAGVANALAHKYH", "conditions": "pH 7.4, 37 degrees C."}, "hemoglobin [2]": {"target": "T1, hemoglobin", "conditions": "relative to DPG"}},
  "data": [
    {"smiles": "O=P(O)(O)O[C@H]1[C@H](OP(=O)(O)O)[C@@H](OP(=O)(O)O)[C@H](OP(=O)(O)O)[C@@H](OP(=O)(O)O)[C@H]1OP(=O)(O)O", "note": "[IHP, inositol hexaphosphate]", "values": [
      {"measurement": "P50 of hemoglobin", "setting": "hemoglobin [1]", "value": "≤ 96.4", "unit": "mm Hg"},
      {"measurement": "affinity to hemoglobin, higher than DPG", "setting": "hemoglobin [2]", "value": 1000, "unit": "fold"}
    ]}
  ]
}
